Measured values from ChEMBL document CHEMBL6121055, “Strategic Mutations in Designer Native Peptides Combat NLRP3 Inflammasome Activation in Neurodegenerative Disorders” (J Med Chem, 2025).
Calls of active or inactive are those of the source. The rule behind the calls is not given here. Residues, ends and D or L forms follow the SMILES beside them.

Columns and labels:
[1] = Cytotoxicity against mouse N9 cells assessed as reduction in cell viability at 100 uM incubated for 24 hrs by MTT assay; assay type: toxicity, cell-based; conditions: n9, 24 h
N9 [2] = experiment: Inhibition of NLRP3 inflammasome activation in LPS/tau-stimulated mouse N9 cells assessed as reduction in IL-1beta secretion at 10 to 20 uM preincubated with LPS for 4 hrs followed by compound addition for 30 mins and measured after tau stimulation for 24 hrs by ELISA; assay type: cell-based; conditions: dose 10-20 µM, time 24.5 hrs
N9 [3] = experiment: Inhibition of NLRP3 inflammasome activation in LPS/ATP-stimulated mouse N9 cells assessed as reduction in IL-1beta mRNA expression by measuring remaining activity at 20 uM by qRT-PCR analysis relative to control; assay type: cell-based
N9 [4] = experiment: Inhibition of NLRP3 inflammasome activation mediated pyroptosis in LPS/alpha-synuclein-stimulated mouse N9 cells assessed as reduction in cell death at 5 to 30 uM by MTT assay; assay type: cell-based; conditions: dose 5-30 µM
N9 [5] = experiment: Inhibition of NLRP3 inflammasome activation mediated in LPS/tau-stimulated mouse N9 cells assessed as decrease in mitochondrial ROS generation by flow cytometric analysis; assay type: cell-based; conditions: dose 5-30 µM
N9 [6] = experiment: Inhibition of NLRP3 inflammasome activation in LPS/amyloid-beta-stimulated mouse N9 cells assessed as reduction in IL-1beta secretion at 10 to 20 uM preincubated with LPS for 4 hrs followed by compound addition for 30 mins and measured after amyloid-beta stimulation for 24 hrs by ELISA; assay type: cell-based; conditions: dose 10-20 µM, time 24.5 hrs
N9 [7] = experiment: Inhibition of NLRP3 inflammasome activation mediated pyroptosis in LPS/tau-stimulated mouse N9 cells assessed as reduction in cell death at 5 to 30 uM by MTT assay; assay type: cell-based; conditions: dose 5-30 µM
N9 [8] = experiment: Inhibition of NLRP3 inflammasome activation mediated pyroptosis in LPS/ATP-stimulated mouse N9 cells assessed as reduction in cell death measured after 24 hrs by MTT assay; assay type: cell-based; conditions: dose 5-30 µM
N9 [9] = experiment: Inhibition of NLRP3 inflammasome activation in LPS/alpha-synuclein-stimulated mouse N9 cells assessed as inhibition of ASC speck formation preincubated with LPS for 4 hrs followed by compound addition by 30 mins and measured after 24 hrs of alpha-synuclein stimulation by DAPI staining based immunofluorescence analysis; assay type: cell-based; conditions: dose 10-20 µM, time 24.5 hrs
N9 [10] = experiment: Inhibition of NLRP3 inflammasome activation mediated in LPS/alpha-synuclein-stimulated mouse N9 cells assessed as decrease in mitochondrial ROS generation by flow cytometric analysis; assay type: cell-based; conditions: dose 5-30 µM
N9 [11] = experiment: Inhibition of NLRP3 inflammasome activation mediated in LPS/amyloid-beta-stimulated mouse N9 cells assessed as increase in mitochondrial membrane potential by flow cytometric analysis; assay type: cell-based; conditions: dose 5-30 µM
N9 [12] = experiment: Inhibition of NLRP3 inflammasome activation in LPS/ATP-stimulated mouse N9 cells assessed as inhibition of GSDMD cleavage by DAPI staining based immunofluorescence analysis; assay type: cell-based; conditions: dose 10-20 µM
N9 [13] = experiment: Inhibition of NLRP3 inflammasome activation in LPS/amyloid-beta-stimulated mouse N9 cells assessed as reduction in IL-1beta secretion at 10 to 20 uM preincubated with LPS for 4 hrs followed by compound addition for 30 mins and measured after amyloid-beta stimulation for 16 hrs by ELISA; assay type: cell-based; conditions: dose 10-20 µM, time 16.5 hrs
N9 [14] = experiment: Inhibition of NLRP3 inflammasome activation mediated mitochondrial damage in LPS/ATP-stimulated mouse N9 cells assessed as reduction in mitochondrial ROS level by MitoSOX red staining based confocal microscopic analysis; assay type: cell-based; conditions: dose 10-20 µM
[15] = Inhibition of NLRP3 inflammasome activation in LPS/ATP-stimulated mouse N9 cells assessed as inhibition of IL-1beta mRNA expression by qRT-PCR analysis; assay type: cell-based
[16] = target: T1, Apoptosis-associated speck-like protein containing a CARD (Homo sapiens, UniProt Q9ULZ3); experiment: Binding affinity to ASC (unknown origin) assessed as shift in ASC protein band at 0.5 to 2 uM by native PAGE analysis; conditions: dose 0.5-2 µM
T1 sequence (Q9ULZ3 whole entry): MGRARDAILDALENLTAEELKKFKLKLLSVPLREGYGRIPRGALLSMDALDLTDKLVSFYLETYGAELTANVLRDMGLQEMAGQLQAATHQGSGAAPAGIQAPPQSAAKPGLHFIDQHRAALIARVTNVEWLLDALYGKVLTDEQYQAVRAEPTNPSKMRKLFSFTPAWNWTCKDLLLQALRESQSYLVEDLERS

N9 [17] = experiment: Effect on TNF-alpha mRNA expression in LPS/ATP-stimulated mouse N9 cells at 1 to 100 uM by qRT-PCR analysis; assay type: functional, cell-based; conditions: dose 1-100 µM
N9 [18] = experiment: Inhibition of NLRP3 inflammasome activation mediated in LPS/tau-stimulated mouse N9 cells assessed as increase in mitochondrial membrane potential by flow cytometric analysis; assay type: cell-based; conditions: dose 5-30 µM
N9 [19] = experiment: Inhibition of NLRP3 inflammasome activation in LPS/ATP-stimulated mouse N9 cells assessed as increase in intracellular chloride level at 5 to 30 uM preincubated with LPS for 4 hrs followed by compound addition for 30 mins and measured after ATP stimulation for 45 mins by MQAE dye based analysis; assay type: cell-based; conditions: dose 5-30 µM, time 75.0 min
[20] = target: T1, Apoptosis-associated speck-like protein containing a CARD; experiment: Binding affinity to Alexa647-labeled ASC (unknown origin) assessed as dissociation constant incubated for 5 mins by fluorescence spectra based analysis
N9 [21] = experiment: Inhibition of NLRP3 inflammasome activation in LPS/ATP-stimulated mouse N9 cells assessed as increase in intracellular chloride level preincubated with LPS for 4 hrs followed by compound addition for 30 mins and measured after ATP stimulation for 50 mins by MQAE dye based analysis; assay type: cell-based; conditions: time 80.0 min
N9 [22] = experiment: Inhibition of NLRP3 inflammasome activation mediated pyroptosis in LPS/ATP-stimulated mouse N9 cells assessed as reduction in cell death preincubated with compound followed by LPS stimulation by MTT assay; assay type: cell-based; conditions: dose 5-20 µM
N9 [23] = experiment: Inhibition of NLRP3 inflammasome activation mediated in LPS/amyloid-beta-stimulated mouse N9 cells assessed as decrease in mitochondrial ROS generation by flow cytometric analysis; assay type: cell-based; conditions: dose 5-30 µM
[24] = Stability of compound in human serum at 100 uM measured over 24 hrs by RP-HPLC analysis; assay type: ADME, cell-free
N9 [25] = experiment: Inhibition of NLRP3 inflammasome activation mediated mitochondrial damage in LPS/ATP-stimulated mouse N9 cells assessed as normal tubular structure of mitochondria at 10 to 20 uM by […] staining based confocal microscopic analysis; conditions: dose 10-20 µM
N9 [26] = experiment: Inhibition of NLRP3 inflammasome activation in LPS/ATP-stimulated mouse N9 cells assessed as reduction in IL-1beta secretion at 10 to 20 uM preincubated with LPS for 4 hrs followed by compound addition for 30 mins and measured after ATP stimulation for 45 mins by ELISA; assay type: cell-based; conditions: dose 10-20 µM, time 75.0 min
N9 [27] = experiment: Inhibition of AIM2 inflammasome activation mediated pyroptosis in LPS/poly(dA:dT)-stimulated mouse N9 cells assessed as reduction in cell death at 50 uM by MTT assay; assay type: cell-based
N9 [28] = experiment: Inhibition of NLRP3 inflammasome activation mediated pyroptosis in LPS/ATP-stimulated mouse N9 cells assessed as reduction in cell death at 100 uM measured after 24 hrs by MTT assay; assay type: cell-based
N9 [29] = experiment: Inhibition of NLRP3 inflammasome activation mediated ROS production in LPS/ATP-stimulated mouse N9 cells preincubated with LPS for 4 hrs followed by compound addition for 30 mins and measured after ATP stimulation for 1 hrs by DCFDA staining based flow cytometric analysis; assay type: cell-based; conditions: dose 10-30 µM, time 1.5 hrs
[30] = target: T1, Apoptosis-associated speck-like protein containing a CARD; experiment: Binding affinity to Alexa647-labeled ASC (unknown origin) assessed as equilibrium dissociation constant incubated for 30 mins by MST analysis
N9 [31] = experiment: Inhibition of NLRP3 inflammasome activation mediated pyroptosis in LPS/ATP-stimulated mouse N9 cells assessed as reduction in number of PI-positive cells preincubated with compound and LPS for 4 hrs followed by ATP addition and measured after 24 hrs by calcein AM/PI staining based confocal imaging analysis; assay type: cell-based; conditions: dose 5-20 µM, time 28.0 hrs
N9 [32] = experiment: Inhibition of NLRP3 inflammasome activation mediated in LPS/alpha-synuclein-stimulated mouse N9 cells assessed as increase in mitochondrial membrane potential by flow cytometric analysis; assay type: cell-based; conditions: dose 5-30 µM

## CC[C@H](C)[C@H](NC(=O)[C@H](C)NC(=O)[C@H](C)NC(=O)[C@H](CC(C)C)NC(=O)[C@@H](NC(=O)[C@H](Cc1c[nH]c2ccccc12)NC(=O)[C@@H](N)C(C)C)[C@@H](C)CC)C(=O)N[C@@H](CC(N)=O)C(=O)N[C@@H](CCCNC(=N)N)C(=O)N[C@@H](CCCNC(=N)N)C(=O)O (H-VWILAAINRR-OH)
[1]
  Activity: Non-toxic
N9 [2]
  inhibition: Dose-dependent-effect
N9 [3]
  Activity: 50%
N9 [4]
  inhibition: Active
N9 [5]
  inhibition: Dose-dependent-effect
N9 [6]
  inhibition: Dose-dependent-effect
N9 [7]
  inhibition: Active
N9 [8]
  inhibition: Dose-dependent-effect
N9 [9]
  inhibition: Dose-dependent-effect
N9 [10]
  inhibition: Dose-dependent-effect
N9 [11]
  inhibition: Dose-dependent-effect
N9 [12]
  inhibition: Dose-dependent-effect
N9 [13]
  inhibition: Dose-dependent-effect
N9 [14]
  inhibition: Dose-dependent-effect
[15]
  IC50: 2570 nM
[16]
  Activity: Active
N9 [17]
  Activity: inactive
N9 [18]
  inhibition: Dose-dependent-effect
N9 [19]
  inhibition: Active
[20]
  Kd: 58 nM
N9 [21]
  inhibition: Active
N9 [22]
  inhibition: Dose-dependent-effect
N9 [23]
  inhibition: Dose-dependent-effect
[24]
  Stability: Stable
N9 [25]
  inhibition: Active
N9 [26]
  inhibition: Active
N9 [27]
  inhibition: Active
N9 [28]
  inhibition: Active
N9 [29]
  inhibition: Dose-dependent-effect
[30]
  Kd: ~149 nM
N9 [31]
  inhibition: Dose-dependent-effect
N9 [32]
  inhibition: Dose-dependent-effect
